According to PubChem BioAssay AID328 (DTP/NCI, 2004):
Toxic doses and inconclusive results are not listed.

System: BDF1 mice, P388 leukemia ip, median survival T/C
Assay: NCI In Vivo Anticancer Drug Screen. Data for tumor model P388 Leukemia (intraperitoneal) in B6D2F1 (BDF1) mice
Conditions: endpoint: median survival time, higher = longer survival
Summary of the method: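 In tumour-bearing mice, survival after compound treatment is set against the vehicle group and given as a quotient.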

[1] = dose: 50.0 mg/kg/injection, schedule: Q01DX009 (ip), vehicle: saline with Tween-80
[2] = dose: 100.0 mg/kg/injection, schedule: Q01DX009 (ip), vehicle: saline with Tween-80
[3] = dose: 200.0 mg/kg/injection, schedule: Q01DX009 (ip), vehicle: saline with Tween-80
[4] = dose: 400.0 mg/kg/injection, schedule: Q04DX003 (ip), vehicle: saline with Tween-80
[5] = dose: 100.0 mg/kg/injection, schedule: Q04DX003 (ip), vehicle: Klucel (hydroxypropylcellulose) (HPC)
[6] = dose: 200.0 mg/kg/injection, schedule: Q04DX003 (ip), vehicle: Klucel (hydroxypropylcellulose) (HPC)
[7] = dose: 6.25 mg/kg/injection, schedule: Q01DX009 (ip), vehicle: saline
[8] = dose: 50.0 mg/kg/injection, schedule: Q04DX003 (ip), vehicle: saline
[9] = dose: 400.0 mg/kg/injection, schedule: Q04DX003 (ip), vehicle: Klucel (hydroxypropylcellulose) (HPC)

## O=C(Nc1ccc2ccccc2c1)c1ccc(Cl)cc1Cl
dose: 75.0 mg/kg/injection, schedule: Q01DX001 (ip), vehicle: saline with Tween-80
  T/C: 95 % of control
dose: 150.0 mg/kg/injection, schedule: Q01DX001 (ip), vehicle: saline with Tween-80
  T/C: 86 % of control
dose: 300.0 mg/kg/injection, schedule: Q01DX001 (ip), vehicle: saline with Tween-80
  T/C: 90 % of control

## FC(F)(F)c1cccc(C(c2ccccc2)(c2ccccc2)n2cncn2)c1
[1]
  T/C: 114 % of control
[2]
  T/C: 109 % of control
[3]
  T/C: 100 % of control

## O=NN(CCCl)C(=O)NC1CCC(=O)NC1=O (stereo not drawn)
dose: 3.13 mg/kg/injection, schedule: Q04DX003 (ip), vehicle: saline with Tween-80
  T/C: 272 % of control
dose: 4.0 mg/kg/injection, schedule: Q04DX003 (ip), vehicle: saline with Tween-80
  T/C: 230 % of control
dose: 6.0 mg/kg/injection, schedule: Q04DX003 (ip), vehicle: saline with Tween-80
  T/C: 230 % of control
dose: 6.25 mg/kg/injection, schedule: Q04DX003 (ip), vehicle: saline with Tween-80
  T/C: 272 % of control
dose: 9.0 mg/kg/injection, schedule: Q04DX003 (ip), vehicle: gum acacia
  T/C: 250 % of control
dose: 9.0 mg/kg/injection, schedule: Q04DX003 (ip), vehicle: saline with Tween-80
  T/C: 230 % of control
dose: 12.5 mg/kg/injection, schedule: Q04DX003 (ip), vehicle: saline with Tween-80
  T/C: 104 % of control
dose: 20.0 mg/kg/injection, schedule: Q04DX003 (ip), vehicle: gum acacia
  T/C: 112 % of control

## CCN(CCN)c1cccc(C)c1
dose: 25.0 mg/kg/injection, schedule: Q04DX003 (ip), vehicle: saline sonified
  T/C: 100 % of control
dose: 50.0 mg/kg/injection, schedule: Q04DX003 (ip), vehicle: saline sonified
  T/C: 120 % of control
dose: 100.0 mg/kg/injection, schedule: Q04DX003 (ip), vehicle: saline sonified
  T/C: 100 % of control

## CC(C)OC(=O)C1(N)CCCC1
dose: 50.0 mg/kg/injection, schedule: Q01DX009 (ip), vehicle: saline
  T/C: 109 % of control
dose: 100.0 mg/kg/injection, schedule: Q01DX009 (ip), vehicle: saline
  T/C: 109 % of control
dose: 200.0 mg/kg/injection, schedule: Q01DX009 (ip), vehicle: saline
  T/C: 86 % of control
[4]
  T/C: 113 % of control
dose: 400.0 mg/kg/injection, schedule: Q04DX003 (ip), vehicle: saline
  T/C: 116 % of control
dose: 600.0 mg/kg/injection, schedule: Q04DX003 (ip), vehicle: saline with Tween-80
  T/C: 86 % of control
dose: 600.0 mg/kg/injection, schedule: Q04DX003 (ip), vehicle: saline
  T/C: 91 % of control

## CCN1C(=O)CSC1=S
dose: 62.5 mg/kg/injection, schedule: Q01DX010 (ip), vehicle: saline
  T/C: 109 % of control
dose: 125.0 mg/kg/injection, schedule: Q01DX010 (ip), vehicle: saline
  T/C: 109 % of control
dose: 250.0 mg/kg/injection, schedule: Q01DX010 (ip), vehicle: saline
  T/C: 90 % of control

## Nc1c(Br)cc(Br)c(C(=O)O)c1Br
dose: 50.0 mg/kg/injection, schedule: Q04DX003 (ip), vehicle: Klucel (hydroxypropylcellulose) (HPC)
  T/C: 100 % of control
[5]
  T/C: 100 % of control
[6]
  T/C: 95 % of control

## CCCC1CC[N-]CC1.CCCC1CC[N-]CC1.CCCC1CC[N-]CC1.CCCC1CC[N-]CC1.[Cl][Ni][Cl]
dose: 2.0 mg/kg/injection, schedule: Q01DX009 (ip), vehicle: saline
  T/C: 116 % of control
dose: 4.0 mg/kg/injection, schedule: Q01DX009 (ip), vehicle: saline
  T/C: 97 % of control
[7]
  T/C: 112 % of control
dose: 8.0 mg/kg/injection, schedule: Q01DX009 (ip), vehicle: saline
  T/C: 116 % of control
[8]
  T/C: 100 % of control

## COc1cc2c3c(c1)-c1c(ccc(OC)c1Oc1nnnn1-c1ccccc1)CC3N(C)CC2 (stereo not drawn)
dose: 12.5 mg/kg/injection, schedule: Q04DX003 (ip), vehicle: saline
  T/C: 108 % of control
dose: 25.0 mg/kg/injection, schedule: Q04DX003 (ip), vehicle: saline
  T/C: 115 % of control
[8]
  T/C: 115 % of control
dose: 100.0 mg/kg/injection, schedule: Q04DX003 (ip), vehicle: saline
  T/C: 108 % of control
dose: 200.0 mg/kg/injection, schedule: Q04DX003 (ip), vehicle: saline
  T/C: 115 % of control

## Cc1ccc(C2NC(=S)N3C(c4ccc(C)cc4)NC(=S)N23)cc1 (stereo not drawn)
dose: 50.0 mg/kg/injection, schedule: Q01DX009 (ip), vehicle: Klucel (hydroxypropylcellulose) (HPC)
  T/C: 98 % of control
dose: 100.0 mg/kg/injection, schedule: Q01DX009 (ip), vehicle: Klucel (hydroxypropylcellulose) (HPC)
  T/C: 111 % of control
dose: 200.0 mg/kg/injection, schedule: Q01DX009 (ip), vehicle: Klucel (hydroxypropylcellulose) (HPC)
  T/C: 111 % of control
dose: 400.0 mg/kg/injection, schedule: Q01DX009 (ip), vehicle: Klucel (hydroxypropylcellulose) (HPC)
  T/C: 154 % of control
dose: 400.0 mg/kg/injection, schedule: Q01DX009 (ip), vehicle: saline
  T/C: 112 % of control
dose: 600.0 mg/kg/injection, schedule: Q01DX009 (ip), vehicle: saline
  T/C: 120 % of control

## COC(=O)c1cccc(OC)c1C(=O)OC
dose: 100.0 mg/kg/injection, schedule: Q04DX002 (ip), vehicle: saline with Tween-80
  T/C: 104 % of control
dose: 200.0 mg/kg/injection, schedule: Q04DX002 (ip), vehicle: saline with Tween-80
  T/C: 102 % of control

## CC(=O)N=C1CCCC1C#N (stereo not drawn)
dose: 100.0 mg/kg/injection, schedule: Q01DX001 (ip), vehicle: Klucel (hydroxypropylcellulose) (HPC)
  T/C: 104 % of control
dose: 200.0 mg/kg/injection, schedule: Q01DX001 (ip), vehicle: Klucel (hydroxypropylcellulose) (HPC)
  T/C: 100 % of control
dose: 400.0 mg/kg/injection, schedule: Q01DX001 (ip), vehicle: Klucel (hydroxypropylcellulose) (HPC)
  T/C: 95 % of control

## O=[N+]([O-])c1ccc2scc3c4ccccc4nc-3c2c1
[7]
  T/C: 103 % of control

## COc1cc(-c2ccc(Nc3ccccc3C(=O)O)c(OC)c2)ccc1N
dose: 25.0 mg/kg/injection, schedule: Q01DX009 (ip), vehicle: saline with Tween-80
  T/C: 110 % of control
dose: 33.0 mg/kg/injection, schedule: Q01DX009 (ip), vehicle: saline with Tween-80
  T/C: 109 % of control
dose: 75.0 mg/kg/injection, schedule: Q01DX009 (ip), vehicle: saline with Tween-80
  T/C: 163 % of control

## O=C(c1ccccc1Cl)c1cccc2ccccc12
dose: 22.0 mg/kg/injection, schedule: Q01DX009 (ip), vehicle: Klucel (hydroxypropylcellulose) (HPC)
  T/C: 100 % of control
dose: 35.0 mg/kg/injection, schedule: Q01DX009 (ip), vehicle: Klucel (hydroxypropylcellulose) (HPC)
  T/C: 100 % of control
dose: 175.0 mg/kg/injection, schedule: Q04DX003 (ip), vehicle: Klucel (hydroxypropylcellulose) (HPC)
  T/C: 100 % of control
[9]
  T/C: 104 % of control
dose: 600.0 mg/kg/injection, schedule: Q04DX003 (ip), vehicle: Klucel (hydroxypropylcellulose) (HPC)
  T/C: 104 % of control

## Cc1cc2c(c(O)c1-c1c(C)cc(O)c3c1C(=O)C=CC3=O)C(=O)C=CC2=O
dose: 1.25 mg/kg/injection, schedule: Q01DX009 (ip), vehicle: saline with Tween-80
  T/C: 107 % of control
dose: 2.5 mg/kg/injection, schedule: Q01DX009 (ip), vehicle: saline with Tween-80
  T/C: 114 % of control
dose: 5.0 mg/kg/injection, schedule: Q01DX009 (ip), vehicle: saline with Tween-80
  T/C: 103 % of control

## COC(OC)c1[nH]c(=S)[nH]c(=O)c1Cc1cc([N+](=O)[O-])ccc1O
dose: 25.0 mg/kg/injection, schedule: Q04DX003 (ip), vehicle: saline with Tween-80
  T/C: 104 % of control
dose: 50.0 mg/kg/injection, schedule: Q04DX003 (ip), vehicle: saline with Tween-80
  T/C: 108 % of control
dose: 100.0 mg/kg/injection, schedule: Q04DX003 (ip), vehicle: saline with Tween-80
  T/C: 95 % of control
dose: 200.0 mg/kg/injection, schedule: Q04DX003 (ip), vehicle: saline with Tween-80
  T/C: 104 % of control
[4]
  T/C: 90 % of control

## O=C(OC1C=CCC1)c1ccc([N+](=O)[O-])cc1 (stereo not drawn)
[5]
  T/C: 100 % of control
[6]
  T/C: 100 % of control
[9]
  T/C: 100 % of control

## COc1ccc(OC)c(C(=O)C=C(C(F)(F)F)C(F)(F)F)c1
dose: 33.0 mg/kg/injection, schedule: Q01DX009 (ip), vehicle: other
  T/C: 109 % of control
dose: 50.0 mg/kg/injection, schedule: Q01DX009 (ip), vehicle: other
  T/C: 113 % of control
dose: 75.0 mg/kg/injection, schedule: Q01DX009 (ip), vehicle: other
  T/C: 122 % of control

## O=C1NC(=S)S/C1=C\c1ccncc1
[1]
  T/C: 113 % of control
[2]
  T/C: 106 % of control
[3]
  T/C: 106 % of control
dose: 400.0 mg/kg/injection, schedule: Q01DX009 (ip), vehicle: saline with Tween-80
  T/C: 106 % of control
